{
  "source": "patent US5061728A",
  "about": "“Use of 4-phenyl-1,2,3,4-tetrahydro-1-naphthalenamine derivatives in the treatment of inflammation and as immunosuppressants” (Pfizer Inc., priority 1990, dated 1991)",
  "data": [
    {"target": "sigma receptors in brain tissue", "assay": "In vitro binding: inhibition of (+)-[3H]3-PPP binding in rat whole brain membranes", "conditions": "Table 1, racemates, 3 nM (+)-[3H]3-PPP", "protocol": "(§1) Affinity of disclosed compounds for sigma receptors in brain tissue was ascertained by the degree of inhibition of binding of the sigma site radioligand, (+)-[^3 H]3-(3-hydroxphenyl)-N-(1-propyl)piperidine ((+)-[^3 H]3-PPP) in competition experiments in vitro. These experiments were conducted by the method of Largent et al. Proc. Nat. Acad. Sec. […] Brains were removed from Sprague-DawleyCD male rats (Charles River Breeding Laboratories, Inc., Wilmington, Mass.; 200-300 g) following decapitation. Whole brain was homogenized in 25 volumes (v/w) of ice-cold 50 mM Tris (tris(hydroxymethyl)amino methane) hydrochloride pH 7.7 buffer using a Polytron PT-10 homogenizer. The pellet resulting from centrifugation of the homogenate at 45,000×g for 10 minutes at 0°-5° was washed twice by resuspension in the same volume of fresh buffer and recentrifugation. The final pellet was dispersed in 50 mM Tris hydrochloride pH 8.0 buffer (50 ml/g of original weight; \"tissue preparation\"). The incubation mixture in triplicate was comprised of 0.05 ml blank (10 μM pentazocine for nonspecific binding), test compound or vehicle; 0.20 ml (+)-[^3 H]3-PPP (110 Ci/mmol, NEN® DuPont; 3 nM final concentration) in 50 mM Tris hydrochloride pH 8.0 buffer; and 0.75 ml tissue preparation. The latter was added just prior to incubation of the mixture at 25° C. for 90 minutes. Afterwards, the mixture was diluted with 2.5 ml 10 mM Tris hydrochloride pH 7.7 buffer and filtered under vacuum through a Whatman GF/B glass-fiber filter (pretreated with 1% polyethyleneimine) in a Brandell cell harvester to recover the membranes. The filter was washed twice with the diluent buffer and placed in 10 ml Aquasol-2 (NEN® DuPont Co.) for determination of bound radioactivity in a liquid scintillation counter.", "units": {"IC50": "nM"}, "values": [
      {"smiles": "CN(C)[C@H]1CC[C@@H](c2ccc(Cl)c(Cl)c2)c2ccccc21", "note": "(relative stereo) [(±)-cis 3,4-diCl N(CH3)2]", "IC50": 44},
      {"smiles": "CN[C@H]1CC[C@H](c2ccc(C(F)(F)F)cc2)c2ccccc21", "note": "(relative stereo) [(±)-trans 4-CF3 NHCH3]", "IC50": 39},
      {"smiles": "CN[C@H]1CC[C@@H](c2ccc(Br)cc2)c2ccccc21", "note": "(relative stereo) [(±)-cis 4-Br NHCH3]", "IC50": 13},
      {"smiles": "CN[C@H]1CC[C@@H](c2ccc(Cl)cc2)c2ccccc21", "note": "(relative stereo) [(±)-cis 4-Cl NHCH3]", "IC50": 33},
      {"smiles": "CN(C)[C@H]1CC[C@H](c2ccc(Cl)c(Cl)c2)c2ccccc21", "note": "(relative stereo) [(±)-trans 3,4-diCl N(CH3)2]", "IC50": 30},
      {"smiles": "CN[C@H]1CC[C@H](c2ccc(Br)cc2)c2ccccc21", "note": "(relative stereo) [(±)-trans 4-Br NHCH3]", "IC50": 85},
      {"smiles": "CN[C@H]1CC[C@H](c2cccc(C(F)(F)F)c2)c2ccccc21", "note": "(relative stereo) [(±)-trans 3-CF3 NHCH3]", "IC50": 16},
      {"smiles": "CN[C@H]1CC[C@@H](c2ccc(Cl)c(C(F)(F)F)c2)c2ccccc21", "note": "(relative stereo) [(±)-cis 3-CF3,4-Cl NHCH3]", "IC50": 11},
      {"smiles": "CN[C@H]1CC[C@@H](c2ccc(Cl)cc2Cl)c2ccccc21", "note": "(relative stereo) [(±)-cis 2,4-diCl NHCH3]", "IC50": 29},
      {"smiles": "CN[C@H]1CC[C@H](c2ccc(Cl)c(C(F)(F)F)c2)c2ccccc21", "note": "(relative stereo) [(±)-trans 3-CF3,4-Cl NHCH3]", "IC50": 31},
      {"smiles": "CN[C@H]1CC[C@H](c2ccc(Cl)cc2)c2ccccc21", "note": "(relative stereo) [(±)-trans 4-Cl NHCH3]", "IC50": 75},
      {"smiles": "CN[C@H]1CC[C@H](c2ccc(F)cc2)c2ccccc21", "note": "(relative stereo) [(±)-trans 4-F NHCH3]", "IC50": 66},
      {"smiles": "CN[C@H]1CC[C@@H](c2ccc(C(F)(F)F)cc2)c2ccccc21", "note": "(relative stereo) [(±)-cis 4-CF3 NHCH3]", "IC50": 5.9}
    ]},
    {"target": "sigma receptors in brain tissue", "assay": "In vitro binding: inhibition of (+)-[3H]3-PPP binding in rat whole brain membranes", "conditions": "Table 2, enantiomers, 3 nM (+)-[3H]3-PPP", "protocol": "as §1", "units": {"IC50": "nM"}, "values": [
      {"smiles": "N[C@H]1CC[C@@H](c2ccc(Cl)c(Cl)c2)c2ccccc21", "note": "[(+)-1S, 4S 3,4-diCl NH2, Cis(1S) (4S)-amino-4-(3,4-dichlorophenyl)-1,2,3,4-tetrahydro-1-naphthalenamine]", "IC50": 58},
      {"smiles": "CN[C@H]1CC[C@@H](c2ccc(Cl)c(C(F)(F)F)c2)c2ccccc21", "note": "[(+)-1S, 4S 3-CF3,4-Cl NHCH3, Cis(1S) (4S)-N-methyl-4-(3-trifluoromethyl, 4-chloro-phenyl)-1,2,3,4-tetrahydro-1-naphthalenamine]", "IC50": 17},
      {"smiles": "CN(C)[C@H]1CC[C@@H](c2ccc(Cl)c(Cl)c2)c2ccccc21", "note": "[(+)-1S, 4S 3,4-diCl N(CH3)2, Cis(1S) (4S)-N,N-dimethyl-4-(3,4-dichlorophenyl)-1,2,3,4-tetrahydro-1-naphthalenamine]", "IC50": 28},
      {"smiles": "CN[C@H]1CC[C@@H](c2ccc(Cl)cc2)c2ccccc21", "note": "[(+)-1S, 4S 4-Cl NHCH3, Cis(1S) (4S)-N-methyl-4-(4-chlorophenyl)-1,2,3,4-tetrahydro-1-naphthalenamine]", "IC50": 8.7}
    ]}
  ]
}
